Values of other authors, collected in patent EP1219700A1, “Cleaning compositions” (UNILEVER PLC, priority 2000, dated 2002).

Conditions: at 20°C; other common materials, by contrast

SMILES | Water Solubility (g/100g)
O=P(O)(O)OP(=O)(O)OP(=O)(O)O [Sodium tripolyphosphate anhydrous] | 15 g/100g
O=BO[O-].[Na+] [Sodium perborate anhydrous] | 3.7 g/100g
